Measurements: patent publication US11453703B2, “Heterotandem bicyclic peptide complexes” (BicycleTX Limited, priority 2018, dated 2022)

Target: CD137 (Homo sapiens, UniProt Q07011)
Test: CD137 reporter assay, co-culture with Nectin-4 tumour cells;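 note: jurkat reporter cells co-cultured with tumour cells and test article for 6 h, luminescence signal relative to Jurkat plus tumour cells lacking test article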
Type: cell-based
Set-up: host or cells: Jurkat reporter cells
Settings: for fold induction / Fold Induction over Background: tumour target Nectin4, co-culture with H1376, 6 h; for fold induction: read-out: Fold Induction over Background
Method: Culture medium referred to as R1 media is prepared by adding 1% FBS to RPMI-1640 (component of Promega kit CS196005). Serial dilutions of test articles in R1 are prepared in a sterile 96 well-plate. Use 25 μl per well of test articles or R1 (as a background control) to designated wells in white cell culture plate. Tumour cells* are harvested and resuspended at a concentration of 400,000 cells/mL in R1 media. Twenty five (25) μL/well tumour cells are used in white cell culture plate. Jurkat cells (Promega kit CS196005, 0.5 mL) are thawed in the water bath and then added to 5 ml pre-warmed R1 medium. Twenty five (25) μL/well Jurkat cells are used in white cell culture plate. Incubate the cells and test articles for 6h at 37° C., 5% CO2. At the end of 6 h, add 75 μl/well Bio-Glo™ (Promega) and incubate for 10 min before reading luminescence in a plate reader (Clariostar, BMG). The fold change relative to cells (Jurkat cells+Cell line used in co-culture) is calculated and plotted in GraphPad Prism as log(agonist) vs response to determine EC50 (nM) and Fold Induction over background (Max)

Sequence of CD137 (Q07011 24-255): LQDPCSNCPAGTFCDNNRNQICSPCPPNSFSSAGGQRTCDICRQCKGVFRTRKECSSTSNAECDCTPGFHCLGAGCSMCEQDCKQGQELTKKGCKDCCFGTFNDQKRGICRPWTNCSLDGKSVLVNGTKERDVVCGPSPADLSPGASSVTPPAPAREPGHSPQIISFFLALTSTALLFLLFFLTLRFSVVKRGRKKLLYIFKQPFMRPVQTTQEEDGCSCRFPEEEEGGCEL

Structure (SMILES)	fold induction	EC50 [nM]	Fold Induction over Background [fold]
CCCC[C@@H]1NC(=O)[C@H](Cc2ccc(O)cc2)NC(=O)[C@@H]2CCCN2C(=O)[C@H](CC(=O)O)NC(=O)[C@H](C)NC(=O)[C@H](Cc2ccccc2)NC(=O)[C@@H]2CSCCC(=O)N3CN(CN(C3)C(=O)CCSC[C@@H](C(=O)N[C@@H](CNC(=O)CCc3cn(CCOCCOCCOCCOCCOCCOCCOCCOCCOCCOCCNC(=O)N[C@H]4CSCCC(=O)N5CN6CN(C5)C(=O)CCSC[C@H](NC(=O)[C@@H](CC(=O)O)NC(=O)[C@H](Cc5cccc7ccccc57)NC(=O)[C@@H]5CCCN5C4=O)C(=O)N[C@@H](CCSC)C(=O)N[C@@H](CCCCNC(=N)N)C(=O)N[C@@H](CC(=O)O)C(=O)N[C@@H](Cc4c[nH]c5ccccc45)C(=O)N[C@@H](CO)C(=O)N[C@@H]([C@@H](C)O)C(=O)N4CCC[C@H]4C(=O)N4C[C@H](O)C[C@H]4C(=O)N[C@@H](Cc4c[nH]c5ccccc45)C(=O)N[C@H](C(N)=O)CSCCC6=O)nn3)C(N)=O)NC1=O)C(=O)CCSC[C@H](NC(=O)[C@H](C)NC(C)=O)C(=O)N[C@@H]([C@@H](C)CC)C(=O)N[C@@H](CCC(=O)O)C(=O)N[C@@H](CCC(=O)O)C(=O)NCC(=O)N[C@@H](CCC(N)=O)C(=O)N[C@@H](Cc1ccc(O)cc1)C(=O)N2 [BCY9399]	13	–	–
CCCC[C@@H]1NC(=O)[C@H](Cc2ccc(O)cc2)NC(=O)[C@@H]2CCCN2C(=O)[C@H](CC(=O)O)NC(=O)[C@H](C)NC(=O)[C@H](Cc2ccccc2)NC(=O)[C@@H]2CSCCC(=O)N3CN(CN(C3)C(=O)CCSC[C@@H](C(=O)N[C@@H](CNC(=O)CCc3cn(CCOCCOCCOCCOCCOCCOCCOCCOCCOCCOCCOCCOCCOCCOCCOCCOCCOCCOCCOCCOCCOCCOCCOCCNC(=O)N[C@H]4CSCCC(=O)N5CN6CN(C5)C(=O)CCSC[C@H](NC(=O)[C@@H](CC(=O)O)NC(=O)[C@H](Cc5cccc7ccccc57)NC(=O)[C@@H]5CCCN5C4=O)C(=O)N[C@@H](CCSC)C(=O)N[C@@H](CCCCNC(=N)N)C(=O)N[C@@H](CC(=O)O)C(=O)N[C@@H](Cc4c[nH]c5ccccc45)C(=O)N[C@@H](CO)C(=O)N[C@@H]([C@@H](C)O)C(=O)N4CCC[C@H]4C(=O)N4C[C@H](O)C[C@H]4C(=O)N[C@@H](Cc4c[nH]c5ccccc45)C(=O)N[C@H](C(N)=O)CSCCC6=O)nn3)C(N)=O)NC1=O)C(=O)CCSC[C@H](NC(=O)[C@H](C)NC(C)=O)C(=O)N[C@@H]([C@@H](C)CC)C(=O)N[C@@H](CCC(=O)O)C(=O)N[C@@H](CCC(=O)O)C(=O)NCC(=O)N[C@@H](CCC(N)=O)C(=O)N[C@@H](Cc1ccc(O)cc1)C(=O)N2 [BCY9400]	13	–	–
CCCC[C@@H]1NC(=O)[C@H](Cc2ccc(O)cc2)NC(=O)[C@@H]2CCCN2C(=O)[C@H](CC(=O)O)NC(=O)[C@H](C)NC(=O)[C@H](Cc2ccccc2)NC(=O)[C@@H]2CSCCC(=O)N3CN(CN(C3)C(=O)CCSC[C@@H](C(=O)N[C@@H](CNC(=O)CCc3cn(CCCNC(=O)CN(C)C(=O)CN(C)C(=O)CN(C)C(=O)CN(C)C(=O)CN(C)C(=O)CCOCCOCCOCCOCCOCCOCCOCCOCCOCCOCCOCCOCCOCCOCCOCCNC(=O)N[C@H]4CSCCC(=O)N5CN6CN(C5)C(=O)CCSC[C@H](NC(=O)[C@@H](CC(=O)O)NC(=O)[C@H](Cc5cccc7ccccc57)NC(=O)[C@@H]5CCCN5C4=O)C(=O)N[C@@H](CCSC)C(=O)N[C@@H](CCCCNC(=N)N)C(=O)N[C@@H](CC(=O)O)C(=O)N[C@@H](Cc4c[nH]c5ccccc45)C(=O)N[C@@H](CO)C(=O)N[C@@H]([C@@H](C)O)C(=O)N4CCC[C@H]4C(=O)N4C[C@H](O)C[C@H]4C(=O)N[C@@H](Cc4c[nH]c5ccccc45)C(=O)N[C@H](C(N)=O)CSCCC6=O)nn3)C(N)=O)NC1=O)C(=O)CCSC[C@H](NC(=O)[C@H](C)NC(C)=O)C(=O)N[C@@H]([C@@H](C)CC)C(=O)N[C@@H](CCC(=O)O)C(=O)N[C@@H](CCC(=O)O)C(=O)NCC(=O)N[C@@H](CCC(N)=O)C(=O)N[C@@H](Cc1ccc(O)cc1)C(=O)N2 [BCY9407]	–	3.4	29
CCCC[C@@H]1NC(=O)[C@H](Cc2ccc(O)cc2)NC(=O)[C@@H]2CCCN2C(=O)[C@H](CC(=O)O)NC(=O)[C@H](C)NC(=O)[C@H](Cc2ccccc2)NC(=O)[C@@H]2CSCCC(=O)N3CN(CN(C3)C(=O)CCSC[C@@H](C(=O)N[C@@H](CNC(=O)CCOCCOCCOCCOCCOCCOCCOCCOCCOCCOCCOCCOCCOCCOCCOCCOCCOCCOCCOCCOCCOCCOCCOCCOCCOCCC(=O)N[C@H]3CSCCC(=O)N4CN5CN(C4)C(=O)CCSC[C@H](NC(=O)[C@@H](CC(=O)O)NC(=O)[C@H](Cc4cccc6ccccc46)NC(=O)[C@@H]4CCCN4C3=O)C(=O)N[C@@H](CCSC)C(=O)N[C@@H](CCCCNC(=N)N)C(=O)N[C@@H](CC(=O)O)C(=O)N[C@@H](Cc3c[nH]c4ccccc34)C(=O)N[C@@H](CO)C(=O)N[C@@H]([C@@H](C)O)C(=O)N3CCC[C@H]3C(=O)N3C[C@H](O)C[C@H]3C(=O)N[C@@H](Cc3c[nH]c4ccccc34)C(=O)N[C@H](C(N)=O)CSCCC5=O)C(N)=O)NC1=O)C(=O)CCSC[C@H](NC(=O)[C@H](C)NC(C)=O)C(=O)N[C@@H]([C@@H](C)CC)C(=O)N[C@@H](CCC(=O)O)C(=O)N[C@@H](CCC(=O)O)C(=O)NCC(=O)N[C@@H](CCC(N)=O)C(=O)N[C@@H](Cc1ccc(O)cc1)C(=O)N2 [BCY9759]	–	–	15
CCCC[C@@H]1NC(=O)[C@H](Cc2ccc(O)cc2)NC(=O)[C@@H]2CCCN2C(=O)[C@H](CC(=O)O)NC(=O)[C@H](C)NC(=O)[C@H](Cc2ccccc2)NC(=O)[C@@H]2CSCCC(=O)N3CN(CN(C3)C(=O)CCSC[C@@H](C(=O)N[C@@H](CNC(=O)CCc3cn(CCOCCOCCOCCOCCOCCC(=O)N[C@H]4CSCCC(=O)N5CN6CN(C5)C(=O)CCSC[C@H](NC(=O)[C@@H](CC(=O)O)NC(=O)[C@H](Cc5cccc7ccccc57)NC(=O)[C@@H]5CCCN5C4=O)C(=O)N[C@@H](CCSC)C(=O)N[C@@H](CCCCNC(=N)N)C(=O)N[C@@H](CC(=O)O)C(=O)N[C@@H](Cc4c[nH]c5ccccc45)C(=O)N[C@@H](CO)C(=O)N[C@@H]([C@@H](C)O)C(=O)N4CCC[C@H]4C(=O)N4C[C@H](O)C[C@H]4C(=O)N[C@@H](Cc4c[nH]c5ccccc45)C(=O)N[C@H](C(N)=O)CSCCC6=O)nn3)C(N)=O)NC1=O)C(=O)CCSC[C@H](NC(C)=O)C(=O)N[C@@H](CC(C)(C)C)C(=O)N1CCC[C@H]1C(=O)N[C@@H](CCC(=O)O)C(=O)N[C@H](C)C(=O)N1CCC[C@H]1C(=O)N[C@@H](Cc1ccc(O)cc1)C(=O)N2 [BCY10573]	–	0.9	55
CCCC[C@@H]1NC(=O)[C@H](Cc2ccc(O)cc2)NC(=O)[C@@H]2CCCN2C(=O)[C@H](CC(=O)O)NC(=O)[C@H](C)NC(=O)[C@H](Cc2ccccc2)NC(=O)[C@@H]2CSCCC(=O)N3CN(CN(C3)C(=O)CCSC[C@@H](C(=O)N[C@@H](CNC(=O)Cn3cc(CCC(=O)NCCC(=O)N(C)CC(=O)N(C)CC(=O)N(C)CC(=O)N(C)CC(=O)N(C)CC(=O)N(C)CC(=O)N(C)CC(=O)N(C)CC(=O)N(C)CC(=O)N(C)CC(=O)N[C@H]4CSCCC(=O)N5CN6CN(C5)C(=O)CCSC[C@H](NC(=O)[C@@H](CC(=O)O)NC(=O)[C@H](Cc5cccc7ccccc57)NC(=O)[C@@H]5CCCN5C4=O)C(=O)N[C@@H](CCSC)C(=O)N[C@@H](CCCCNC(=N)N)C(=O)N[C@@H](CC(=O)O)C(=O)N[C@@H](Cc4c[nH]c5ccccc45)C(=O)N[C@@H](CO)C(=O)N[C@@H]([C@@H](C)O)C(=O)N4CCC[C@H]4C(=O)N4C[C@H](O)C[C@H]4C(=O)N[C@@H](Cc4c[nH]c5ccccc45)C(=O)N[C@H](C(N)=O)CSCCC6=O)nn3)C(N)=O)NC1=O)C(=O)CCSC[C@H](NC(C)=O)C(=O)N[C@@H](CC(C)(C)C)C(=O)N1CCC[C@H]1C(=O)N[C@@H](CCC(=O)O)C(=O)N[C@H](C)C(=O)N1CCC[C@H]1C(=O)N[C@@H](Cc1ccc(O)cc1)C(=O)N2 [BCY10578]	–	–	58
CCCC[C@@H]1NC(=O)[C@H](Cc2ccc(O)cc2)NC(=O)[C@@H]2CCCN2C(=O)[C@H](CC(=O)O)NC(=O)[C@H](C)NC(=O)[C@H](Cc2ccccc2)NC(=O)[C@@H]2CSCCC(=O)N3CN(CN(C3)C(=O)CCSC[C@@H](C(=O)N[C@@H](CNC(=O)CCc3cn(CCOCCOCCOCCOCCOCCOCCOCCOCCOCCOCCOCCOCCC(=O)NCCC(=O)N(C)CC(=O)N(C)CC(=O)N(C)CC(=O)N(C)CC(=O)N(C)CC(=O)N(C)CC(=O)N(C)CC(=O)N(C)CC(=O)N(C)CC(=O)N(C)CC(=O)NCCCC[C@H]4NC(=O)[C@H](Cc5cccc6ccccc56)NC(=O)[C@@H]5CCCN5C(=O)[C@@H](NC(C)=O)CSCCC(=O)N5CN6CN(C5)C(=O)CCSC[C@H](NC4=O)C(=O)N[C@@H](CCSC)C(=O)N[C@@H](CCCCNC(=N)N)C(=O)N[C@@H](CC(=O)O)C(=O)N[C@@H](Cc4c[nH]c5ccccc45)C(=O)N[C@@H](CO)C(=O)N[C@@H]([C@@H](C)O)C(=O)N4CCC[C@H]4C(=O)N4C[C@H](O)C[C@H]4C(=O)N[C@@H](Cc4c[nH]c5ccccc45)C(=O)N[C@H](C(N)=O)CSCCC6=O)nn3)C(N)=O)NC1=O)C(=O)CCSC[C@H](NC(C)=O)C(=O)N[C@@H](CC(C)(C)C)C(=O)N1CCC[C@H]1C(=O)N[C@@H](CCC(=O)O)C(=O)N[C@H](C)C(=O)N1CCC[C@H]1C(=O)N[C@@H](Cc1ccc(O)cc1)C(=O)N2 [BCY10917]	–	–	54
CCCC[C@@H]1NC(=O)[C@H](Cc2ccc(O)cc2)NC(=O)[C@@H]2CCCN2C(=O)[C@H](CC(=O)O)NC(=O)[C@H](C)NC(=O)[C@H](Cc2ccccc2)NC(=O)[C@@H]2CSCCC(=O)N3CN(CN(C3)C(=O)CCSC[C@@H](C(=O)N[C@@H](CNC(=O)CCc3cn(CCOCCOCCOCCOCCOCCC(=O)NCCC(=O)N(C)CC(=O)N(C)CC(=O)N(C)CC(=O)N(C)CC(=O)N(C)CC(=O)N(C)CC(=O)N(C)CC(=O)N(C)CC(=O)N(C)CC(=O)N(C)CC(=O)NCCCC[C@H]4NC(=O)[C@H](Cc5cccc6ccccc56)NC(=O)[C@@H]5CCCN5C(=O)[C@@H](NC(C)=O)CSCCC(=O)N5CN6CN(C5)C(=O)CCSC[C@H](NC4=O)C(=O)N[C@@H](CCSC)C(=O)N[C@@H](CCCCNC(=N)N)C(=O)N[C@@H](CC(=O)O)C(=O)N[C@@H](Cc4c[nH]c5ccccc45)C(=O)N[C@@H](CO)C(=O)N[C@@H]([C@@H](C)O)C(=O)N4CCC[C@H]4C(=O)N4C[C@H](O)C[C@H]4C(=O)N[C@@H](Cc4c[nH]c5ccccc45)C(=O)N[C@H](C(N)=O)CSCCC6=O)nn3)C(N)=O)NC1=O)C(=O)CCSC[C@H](NC(C)=O)C(=O)N[C@@H](CC(C)(C)C)C(=O)N1CCC[C@H]1C(=O)N[C@@H](CCC(=O)O)C(=O)N[C@H](C)C(=O)N1CCC[C@H]1C(=O)N[C@@H](Cc1ccc(O)cc1)C(=O)N2 [BCY11020]	–	–	47
